Patent US20090326007A1, “Compounds and methods for modulating sir2 protein activity” (priority 2007, published 2009)
Entries after “also recorded” stand apart in the source; their conditions may differ. Like-named read-outs stand apart in the source and are kept apart here. Each block holds one compound with its values, some of them ahead of it.

How the values were obtained:
Hst2 [1] = biological target: T1, Hst2 (Saccharomyces cerevisiae, UniProt P53686); assay: IC50 determination, fluorigenic deacetylase assay, Hst2
Procedure: (§1) IC50 Determination. […] The dose-response curves were then fit to one-site competition or sigmoidal-dose response curves as appropriate in [sequence] PRISM (GraphPad Software, La Jolla, Calif.) and the IC50 was determined. Three independent IC50 measurements were performed for each compound and the average and standard deviation are reported.
The resulting deacetylase activity for the three experiments was averaged and reported as a percentage relative to control wells containing no inhibitor.

Hst2 [2] = biological target: T1, Hst2; assay: SAR analysis, fluorigenic assay at 50 and 500 μM; format: biochemical; conditions: for inhibition of the Hst2 deacetylase reaction by metal ions (in words): FIG. 2, 50 μM and 500 μM compound
Excerpt: Structure Activity Relationship (SAR) Analysis.

human SIRT2 = biological target: T2, human SIRT2 (Homo sapiens, UniProt Q8IXJ6); assay: Inhibition assay against human SIRT2 (fluorigenic)
T2 sequence (Q8IXJ6 1-352 isoform Q8IXJ6-2): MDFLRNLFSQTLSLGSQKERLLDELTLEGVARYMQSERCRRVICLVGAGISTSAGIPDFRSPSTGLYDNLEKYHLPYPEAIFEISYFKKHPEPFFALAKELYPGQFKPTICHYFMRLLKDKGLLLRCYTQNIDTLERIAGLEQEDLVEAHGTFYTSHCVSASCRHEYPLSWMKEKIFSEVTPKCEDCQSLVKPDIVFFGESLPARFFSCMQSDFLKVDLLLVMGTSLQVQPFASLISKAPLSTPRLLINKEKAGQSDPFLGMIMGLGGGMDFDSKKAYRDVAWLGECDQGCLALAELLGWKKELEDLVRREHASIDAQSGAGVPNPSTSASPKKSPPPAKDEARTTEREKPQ
Procedure: (§2) Human recombinant SIRT3 was purchased from Enzo Life Sciences.
(§3) Inhibition Assay Against Human SIRT2 and SIRT3. […] Two independent measurements were performed for each compound and the average and standard deviation are reported.

human SIRT3 = biological target: T3, human SIRT3 (Homo sapiens, UniProt Q9NTG7); assay: Inhibition assay against human SIRT3 (fluorigenic)
T3 sequence (Q9NTG7 1-399): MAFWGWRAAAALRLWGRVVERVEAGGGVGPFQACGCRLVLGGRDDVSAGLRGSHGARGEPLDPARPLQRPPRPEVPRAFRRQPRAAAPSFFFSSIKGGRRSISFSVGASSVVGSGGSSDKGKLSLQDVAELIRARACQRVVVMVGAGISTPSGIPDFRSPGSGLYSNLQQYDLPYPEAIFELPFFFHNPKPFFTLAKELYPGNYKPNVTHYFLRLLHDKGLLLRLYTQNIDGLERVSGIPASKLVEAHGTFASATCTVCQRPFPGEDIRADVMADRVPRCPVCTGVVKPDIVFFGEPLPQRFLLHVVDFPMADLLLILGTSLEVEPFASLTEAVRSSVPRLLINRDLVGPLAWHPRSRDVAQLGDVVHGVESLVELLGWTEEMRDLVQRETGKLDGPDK
Procedure: as §2, §3

full-length human SIRT1 = biological target: T4, full-length human SIRT1 (Homo sapiens, UniProt Q96EB6); assay: IC50 determination, fluorigenic deacetylase assay, FL SIRT1; conditions: read-out: SIRT1 IC50; Table 5; 240 μM NAD+, 200 μM substrate, 1 μM FL SIRT1, 15 min
T4 sequence (Q96EB6 1-747): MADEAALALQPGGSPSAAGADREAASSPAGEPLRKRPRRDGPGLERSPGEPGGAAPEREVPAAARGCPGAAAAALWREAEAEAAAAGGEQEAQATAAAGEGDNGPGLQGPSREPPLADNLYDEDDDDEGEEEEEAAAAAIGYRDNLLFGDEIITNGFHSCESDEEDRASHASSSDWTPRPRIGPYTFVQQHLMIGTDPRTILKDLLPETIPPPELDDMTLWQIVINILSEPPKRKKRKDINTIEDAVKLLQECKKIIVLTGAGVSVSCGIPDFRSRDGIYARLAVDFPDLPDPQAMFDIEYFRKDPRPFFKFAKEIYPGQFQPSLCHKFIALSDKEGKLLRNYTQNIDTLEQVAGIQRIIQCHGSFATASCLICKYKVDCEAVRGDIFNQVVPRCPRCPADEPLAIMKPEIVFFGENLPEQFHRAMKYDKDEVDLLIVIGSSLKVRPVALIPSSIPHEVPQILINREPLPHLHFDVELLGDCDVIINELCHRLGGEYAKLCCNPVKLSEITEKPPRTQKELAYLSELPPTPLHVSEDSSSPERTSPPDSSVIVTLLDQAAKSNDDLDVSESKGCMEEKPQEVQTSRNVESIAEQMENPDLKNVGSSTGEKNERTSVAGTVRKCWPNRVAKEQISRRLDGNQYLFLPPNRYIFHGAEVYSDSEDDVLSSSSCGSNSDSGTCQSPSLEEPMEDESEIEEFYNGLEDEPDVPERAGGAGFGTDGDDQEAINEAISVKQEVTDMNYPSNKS
Procedure: Cells were harvested and lysed by sonication in buffer containing 50 mM Tris, pH 7.5, 200 mM NaCl, 5 mM imidizole, 10 mM β-mercaptoethanol (BME) and 0.1 mg/mL PMSF. Soluble FL SIRT1 was purified by Ni-NTA (Qiagen, Valencia, Calif.) in a buffer containing 50 mM Tris, pH 7.5, 300 mM NaCl, 10 mM BME, 5% glycerol and 30-600 mM imidizole followed by SUPERDEX-200 gel filtration in buffer containing 50 mM Tris, pH 7.5, 150 mM NaCl, and 10 mM BME. FL SIRT1 eluted between the 670 kDa and 158 kDa globular protein standards. Since SIRT1 is known to aggregate after several days at 4° C., the protein was aliquoted and frozen at −80° C. for use in fluorigenic assays.
as §1

Hst2 [3] = biological target: T1, Hst2; assay: Competition assay (inhibition mode versus NAD+ and acetyl-lysine substrate); format: biochemical; conditions: for Ki: read-out: Ki
Procedure: Competition Assay. […] The fluorigenic assay described above was used with a fixed enzyme concentration of 1 μM. When competition with NAD^+ was being tested, the FLUOR DE LYS-SIRT1 deacetylase substrate was held at a constant concentration of 100 μM and the NAD^+ was titrated from ⅓-5× KmNAD+ (5-80 μM). […] The inhibitors were titrated from ˜½-several times their estimated Ki as indicated. The reaction time was 15 minutes, and each condition was tested in duplicate. The Km, kcat and kcat/Km values were determined by direct fit of the data in SIGMAPLOT (Systat Software, Point Richmond, Calif.) to the Michealis-Menten equation. The Ki and Kis (the slope and intercept inhibition constants, respectively) and the competition type were also determined by a direct fit in SIGMAPLOT to both partial and full competitive, noncompetitive, uncompetitive and mixed competition models. Best-fit models were determined by several statistical methods including R^2, AICs and Sy.x as well as empirical evaluation of α and β values.
To determine the mechanism of inhibition of the compounds identified by HTS and to gain insight as to where these compounds may bind to the enzyme, inhibition modes were determined by varying each of the substrates with the other maintained at a fixed, saturating concentration (Table 11).

[4] = read-out: Hst2 IC50, Table 5, 160 μM NAD+, 100 μM substrate, 1 μM Hst2, 15 min
[5] = substrate NAD+ varied, acetyl-lysine substrate 100 μM
[6] = substrate acetyl-lysine varied, NAD+ 160 μM
[7] = 50 μM compound, relative to control without inhibitor

T1 sequence (P53686 1-294): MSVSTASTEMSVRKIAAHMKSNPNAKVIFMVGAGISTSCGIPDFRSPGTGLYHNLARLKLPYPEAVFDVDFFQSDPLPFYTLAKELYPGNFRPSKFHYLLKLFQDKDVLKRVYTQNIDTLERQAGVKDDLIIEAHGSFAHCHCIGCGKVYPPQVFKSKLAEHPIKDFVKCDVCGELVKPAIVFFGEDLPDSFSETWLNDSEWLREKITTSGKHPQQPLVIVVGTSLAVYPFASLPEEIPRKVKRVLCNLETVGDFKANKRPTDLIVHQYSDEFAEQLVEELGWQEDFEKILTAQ

IC50 (Hst2 [1]; Table 10, Hst2): No Inh.
Compound: O=C(O)CCCN1C(=O)c2ccccc2C1=O [Compound 427032]

inhibition of the Hst2 deacetylase reaction by metal ions (in words) (Hst2 [2]): are not
Compound: [Mg+2] [Mg^2+]

IC50 (Hst2 [1]; Table 10, Hst2): No Inh.
Compound: O=C(O)CCN1C(=O)c2ccc(-c3nc4ccccc4c(=O)o3)cc2C1=O [Compound 47054]

IC50 (Hst2 [1]; [4]): 20 ± 0.9 µM
Compound: Cn1cc(C2=C(c3cn(CCCSC(=N)N)c4ccccc34)C(=O)NC2=O)c2ccccc21 [Ro 31-8220 (6), Ro 31-8220, reference compound]

inhibition of the Hst2 deacetylase reaction by metal ions (in words) (Hst2 [2]): inhibited Hst2 to similar extents
Compound: [Cu+] [Cu^1+]

Compound: [Ni+2] [Ni^2+]
inhibition of the Hst2 deacetylase reaction by metal ions (in words) (Hst2 [2]): inhibitors

IC50 (Hst2 [1]; [4]): > 600 µM
Compound: CN(C)CCCCC(=O)Nc1ccc(NC(=S)NC(=O)c2ccc(C(C)(C)C)cc2)cc1 [Tenovin-6 (5), Tenovin-6, reference compound]

Compound: O=C1c2ccccc2C(=O)N1CCBr [Compound 91032]
IC50 (Hst2 [1]; Table 10, Hst2): No Inh.

Compound: CC(=O)[O][Cd][O]C(C)=O [Compound 11a, cadmium acetate]
IC50 (Hst2 [1]): 1 ± 0.2 µM
IC50 values (range in words) (Hst2 [1]; Table 5): sub-micromolar

inhibition of the Hst2 deacetylase reaction by metal ions (in words) (Hst2 [2]): inhibitors
Compound: [Co+2] [Co^2+]

IC50 (Hst2 [1]; Table 10, Hst2): No Inh.
Compound: Nc1ccc2c(c1)C(=O)N(CCC(=O)O)C2 [Compound 42071]

Compound: CCc1ccc(OCCCC(=O)Oc2ccc3c(c2)oc(=O)c2ccccc23)cc1 [Compound 12a, 4-(4-Ethyl-phenoxy)-butyric acid 6-oxo-6H-benzo[c]chromen-3-yl ester]
IC50 values (range in words) (Hst2 [1]; Table 5): low micromolar
IC50 (Hst2 [1]; [4]): 6.5 ± 1.3 µM
inhibitory activity against human SIRT2 (in words) (human SIRT2; 50 or 100 μM compound): potent inhibitor
remaining activity at 50 µM (human SIRT2; read-out: percent of residual enzyme activity, SIRT2): 2.4 ± 0.3%
remaining activity at 50 µM (human SIRT3; read-out: percent of residual enzyme activity, SIRT3): 89 ± 3.3%
IC50 (full-length human SIRT1): 6 ± 0.4 µM
kcat (Hst2 [3]; substrate NAD+ varied): 0.025 ± 0.005 s⁻¹
Inhibition Mechanism (Hst2 [3]; [5]): fully non-competitive; also recorded: NC (full)
Ki (Hst2 [3]; substrate NAD+ varied): 1.2 ± 0.2 µM
kcat (Hst2 [3]; substrate acetyl-lysine varied): 0.0163 ± 0.00067 s⁻¹
Inhibition Mechanism (Hst2 [3]; [6]): partial non-competitive
Ki (Hst2 [3]; substrate acetyl-lysine varied): 6.3 ± 1.7 µM
activity at 50 µM (Hst2 [2]; Table 8, 50 μM compound, relative to control): < 1%
activity at 500 µM (Hst2 [2]; Table 8, 500 μM compound, relative to control, read-out: % Activity 500): < 1%

Compound: hexachlorophene [Compound 14a]
IC50 (Hst2 [1]; Table 4, Hst2): 12.5 ± 0.6 µM
IC50 values (range in words) (Hst2 [1]; Table 5): low micromolar
IC50 (Hst2 [1]; [4]): 12.5 ± 0.6 µM
percent of residual enzyme activity, SIRT2 (human SIRT2; [7]): 18.5 ± 0.8%
potency estimated from few doses (human SIRT2; read-out: apparent IC50, SIRT2, estimated from single concentration): < 50 µM
percent of residual enzyme activity, SIRT3 (human SIRT3; [7]): 39.5 ± 1.6%
potency estimated from few doses (human SIRT3; read-out: apparent IC50, SIRT3, estimated from single concentration): < 50 µM
IC50 (full-length human SIRT1): 34 ± 10 µM
kcat (Hst2 [3]; substrate NAD+ varied): 0.00933 ± 0.0013 s⁻¹
Inhibition Mechanism (Hst2 [3]; [5]): fully non-competitive; also recorded: NC (full)
Ki (Hst2 [3]; substrate NAD+ varied): 3.9 ± 0.7 µM
kcat (Hst2 [3]; substrate acetyl-lysine varied): 0.0222 ± 0.0015 s⁻¹
Inhibition Mechanism (Hst2 [3]; [6]): fully mixed
Ki (Hst2 [3]; substrate acetyl-lysine varied): 2.5 ± 1 µM
α (mixed inhibition model) (Hst2 [3]; with respect to the acetyl-lysine substrate): 13.4

inhibition of the Hst2 deacetylase reaction by metal ions (in words) (Hst2 [2]): inhibitors
Compound: [Zn+2] [Zn^2+]
